From patent US9981944B2, “GDF-8 inhibitors” (Rigel Pharmaceuticals, Inc., priority 2015, dated 2018)
Where a name gives a salt, the structure may show the parent alone.

Assays:
[1] = tested on: GDF8 signaling (p-SMAD-3 Ser423/425); assay: AlphaScreen SureFire SMAD3 (p-Ser423/425) assay, GDF8 stimulated (GDF pSMAD (MPC11)); type: cell-based; conditions: Mus musculus, MPC-11, inhibition of GDF8 signaling
[2] = tested on: TGF-β signaling (p-SMAD-3 Ser423/425); assay: AlphaScreen SureFire SMAD3 (p-Ser423/425) assay, TGF-β stimulated (TGF-β pSMAD (MPC-11)); type: cell-based
HIS-TGFβR2 WT = HIS-TGFβR2 WT (Homo sapiens (Human), UniProt P37173); assay: HTRF probe displacement assay, HIS-TGFβR2 WT; type: binding; conditions: 1 nM HIS-TGFβR2 WT, 1 hour at room temperature, read-out: TGFBR2WT IC50
Sequence of HIS-TGFβR2 WT (P37173 23-567): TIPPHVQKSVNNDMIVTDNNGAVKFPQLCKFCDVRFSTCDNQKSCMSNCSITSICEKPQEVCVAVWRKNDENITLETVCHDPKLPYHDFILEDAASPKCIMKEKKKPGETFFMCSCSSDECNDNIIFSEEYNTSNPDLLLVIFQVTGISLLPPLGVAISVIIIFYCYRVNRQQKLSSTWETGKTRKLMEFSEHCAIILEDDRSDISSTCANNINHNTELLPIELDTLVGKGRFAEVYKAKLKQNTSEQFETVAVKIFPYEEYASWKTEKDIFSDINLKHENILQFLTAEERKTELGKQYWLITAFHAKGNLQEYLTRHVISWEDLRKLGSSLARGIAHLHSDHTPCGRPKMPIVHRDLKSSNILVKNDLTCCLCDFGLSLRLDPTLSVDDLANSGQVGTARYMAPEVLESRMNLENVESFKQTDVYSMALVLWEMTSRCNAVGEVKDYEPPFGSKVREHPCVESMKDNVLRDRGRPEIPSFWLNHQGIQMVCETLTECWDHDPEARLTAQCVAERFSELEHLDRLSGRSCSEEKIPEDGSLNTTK
Experimental: (§1) Compounds were dissolved at 10 mM in dimethylsulfoxide (DMSO) and evaluated at eleven concentrations. IC50 values were derived by non-linear regression analysis.

HIS-TGFβR1 T204D = HIS-TGFβR1 T204D (Homo sapiens (Human), UniProt P36897, T204D); assay: HTRF probe displacement assay, HIS-TGFβR1 T204D; type: binding; conditions: 1 nM HIS-TGFβR1 T204D, 1 hour at room temperature, read-out: TGFBR1T204D IC50
Sequence of HIS-TGFβR1 T204D (P36897 34-503 T204D): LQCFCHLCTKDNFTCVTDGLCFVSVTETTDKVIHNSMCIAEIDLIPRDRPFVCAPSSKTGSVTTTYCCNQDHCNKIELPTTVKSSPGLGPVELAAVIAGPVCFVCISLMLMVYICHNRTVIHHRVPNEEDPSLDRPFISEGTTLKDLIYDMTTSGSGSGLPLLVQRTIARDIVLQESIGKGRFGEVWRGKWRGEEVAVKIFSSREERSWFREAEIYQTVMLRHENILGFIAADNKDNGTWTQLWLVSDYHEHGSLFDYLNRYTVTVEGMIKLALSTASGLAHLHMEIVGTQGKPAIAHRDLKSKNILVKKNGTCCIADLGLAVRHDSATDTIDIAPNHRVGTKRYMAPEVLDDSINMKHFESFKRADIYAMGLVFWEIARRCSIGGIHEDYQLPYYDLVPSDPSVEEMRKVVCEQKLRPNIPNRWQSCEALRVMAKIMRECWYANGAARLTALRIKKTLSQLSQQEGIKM
Experimental: as §1

[3] = Mus musculus, MPC-11, inhibition of TGF-β signaling

| Compound | IC50 [1] | IC50 [2, 3] | IC50 (HIS-TGFβR2 WT) | IC50 (HIS-TGFβR1 T204D) | also measured |
| --- | --- | --- | --- | --- | --- |
| N#Cc1cnc2ccc(-c3cccnc3-c3ccccn3)cn12 [Compound 7, 6-([2,2′-Bipyridin]-3-yl)imidazo[1,2-a]pyridine-3-carbonitrile] | 8510 nM |  |  |  |  |
| Nc1ncnc2ccc(-c3cccnc3-c3cccc(F)n3)cc12 [Compound 11A, 6-(6′-fluoro-[2,2′-bipyridin]-3-yl)quinazolin-4-aminium 2,2,2-trifluoroacetate] | 229 nM | 1170 nM |  |  |  |
| Cc1cccc(-c2ncccc2-c2ccc3ncnn3c2)n1 [Compound 4, 6-(6′-Methyl-[2,2′-bipyridin]-3-yl)-[1,2,4]triazolo[1,5-a]pyridine] | 215 nM | 501 nM |  |  |  |
| Cc1cccc(-c2ncccc2-c2ccc3ncc(C(N)=O)n3c2)n1 [Compound 6, 6-(6′-Methyl-[2,2′-bipyridin]-3-yl)imidazo[1,2-a]pyridine-3-carboxamide] | 28.6 nM | 53.8 nM |  |  |  |
| Cc1cccc(-c2ncccc2-c2ccnc3ccccc23)n1 [Compound 1, 4-(6′-Methyl-[2,2′-bipyridin]-3-yl)quinolone] | 19700 nM | 10600 nM |  |  |  |
| Cc1cccc(-c2ncccc2-c2ccc3ncnc(N)c3c2)n1 [Compound 2B, 6-(6′-methyl-[2,2′-bipyridin]-3-yl)quinazolin-4-aminium formate] |  |  |  |  | IC50 ([2]; inhibition of TGF-β signaling, formate): 112 nM |
| Cc1cccc(-c2ncccc2-c2ccc3ncc(C#N)n3c2)n1 [Compound 3, 6-(6′-Methyl-[2,2′-bipyridin]-3-yl)imidazo[1,2-a]pyridine-3-carbonitrile] | 734 nM | 1710 nM |  |  |  |
| NC(=O)c1cnc2ccc(-c3cccnc3-c3ccccn3)cn12 [Compound 9, 6-([2,2′-Bipyridin]-3-yl)imidazo[1,2-a]pyridine-3-carboxamide] | 119 nM | 281 nM |  |  |  |
| Cc1cccc(-c2ncccc2-c2ccc3ncnc(N)c3c2)n1 [Compound 2A, 6-(6′-methyl-[2,2′-bipyridin]-3-yl)quinazolin-4-aminium 2,2,2-trifluoroacetate] | 129 nM |  |  |  | IC50 ([2]; inhibition of TGF-β signaling, 2,2,2-trifluoroacetate): 251 nM |
| Nc1ncnc2ccc(-c3cccnc3-c3ccccn3)cc12 [Compound 12A, 6-([2,2′-bipyridin]-3-yl)quinazolin-4-aminium formate] | 1310 nM | 5480 nM |  |  |  |
| Cc1cccc(-c2ncccc2-c2ccn3ncnc3c2)n1 [Compound 5, 7-(6′-Methyl-[2,2′-bipyridin]-3-yl)-[1,2,4]triazolo[1,5-a]pyridine] | 280 nM | 1070 nM |  |  |  |
| c1ccc(-c2ncccc2-c2ccc3ncnn3c2)nc1 [Compound 8, 6-([2,2′-Bipyridin]-3-yl)-[1,2,4]triazolo[1,5-a]pyridine] | 8060 nM | 23600 nM |  |  |  |
| Cc1cccc(-c2nccc(C(F)F)c2-c2ccc3ncc(C#N)n3c2)n1 [Compound 93, 6-(4-(difluoromethyl)-6′-methyl-[2,2′-bipyridin]-3-yl)imidazo[1,2-a]pyridine-3-carbonitrile] |  |  | > 15000 nM | 15000 nM |  |
| Nc1ncnc2ccc(-c3cccnc3-c3cccc(C4CC4)n3)nc12 [Compound 106, 6-(6′-cyclopropyl-[2,2′-bipyridin]-3-yl)pyrido[3,2-d]pyrimidin-4-amine] |  |  | > 15000 nM | 4 nM |  |
| N#Cc1cnn2ccc(-c3cccnc3-c3cccc(C(F)(F)F)n3)nc12 [Compound 121, 5-(6′-(trifluoromethyl)-[2,2′-bipyridin]-3-yl)pyrazolo[1,5-a]pyrimidine-3-carbonitrile] |  |  | > 15000 nM | 854 nM |  |
| CC(C)c1cccc(-c2ncccc2-c2ccc3ncc(C(N)=O)n3c2)n1 [Compound 32, 6-(6′-isopropyl-[2,2′-bipyridin]-3-yl)imidazo[1,2-a]pyridine-3-carboxamide] |  |  | > 15000 nM | 16 nM |  |
| Fc1ccc(-c2ncccc2-c2ccc3[nH]ncc3c2)nc1 [Compound 116, 5-(5′-fluoro-[2,2′-bipyridin]-3-yl)-1H-indazole] |  |  | > 15000 nM | 14 nM |  |
| NC(=O)c1cnc2ccc(-c3cc(F)cnc3-c3cccc(C(F)F)n3)cn12 [Compound 84, 6-(6′-(difluoromethyl)-5-fluoro-[2,2′-bipyridin]-3-yl)imidazo[1,2-a]pyridine-3-carboxamide] |  |  | > 15000 nM | 1 nM |  |
